Measured values: ChEMBL document CHEMBL1201862, “PubChem BioAssay data set” (2004)
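Briefly, cells in 96-well plates were exposed to five compound concentrations for 48 h, and endpoints were estimated by linear interpolation. GI50 = concentration required for 50% inhibition of growth.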 Calls of active or inactive are those of the source. Rule as the data show it: active = GI50 up to about 1.1 µM and inactive = higher.

Assays:
Assay in all cases: NCI anticancer screen, dose series, 48 h
MDA-N = system: MDA-N
K562 = system: K562
NCI-H460 = system: NCI-H460
RXF 393 = system: RXF 393
Malme-3M = system: Malme-3M
TK-10 = system: TK-10
MOLT-4 = system: MOLT-4
NCI-H522 = system: NCI-H522
OVCAR-8 = system: OVCAR-8
T47D = system: T47D
SK-MEL-28 = system: SK-MEL-28
U-251 = system: U-251
OVCAR-3 = system: OVCAR-3
ACHN = system: ACHN
IGROV-1 = system: IGROV-1
BT-549 = system: BT-549
HCT-116 = system: HCT-116
OVCAR-5 = system: OVCAR-5
CAKI-1 = system: CAKI-1

SMILES	GI50 (MDA-N)	GI50 (K562)	GI50 (NCI-H460)	GI50 (RXF 393)	GI50 (Malme-3M)	GI50 (TK-10)	GI50 (MOLT-4)	GI50 (NCI-H522)	GI50 (OVCAR-8)	GI50 (T47D)	GI50 (SK-MEL-28)	GI50 (U-251)	GI50 (OVCAR-3)	GI50 (ACHN)	GI50 (IGROV-1)	GI50 (BT-549)	GI50 (HCT-116)	GI50 (OVCAR-5)	GI50 (CAKI-1)
COc1ccc(C2C(C#N)=C(S)N(C3OC(CO)C(O)C(O)C3O)C(c3ccccc3)=C2C(C)=O)cc1 (stereo unspecified)	37.2 µM (inactive)	43.6 µM (inactive)	88.1 µM (inactive)	> 100 µM (inactive)	70.6 µM (inactive)	> 100 µM (inactive)	28.1 µM (inactive)	26.9 µM (inactive)	63.7 µM (inactive)	6.18 µM (inactive)	91.8 µM (inactive)	53.2 µM (inactive)	22.2 µM (inactive)	83.9 µM (inactive)	> 100 µM (inactive)	> 100 µM (inactive)	70.6 µM (inactive)	> 100 µM (inactive)	–
CCNC(=O)c1c(O)nc2ccccc2c1O	84.9 µM (inactive)	39.8 µM (inactive)	34.9 µM (inactive)	22.1 µM (inactive)	> 100 µM (inactive)	50.6 µM (inactive)	42 µM (inactive)	69.2 µM (inactive)	> 100 µM (inactive)	–	> 100 µM (inactive)	29.5 µM (inactive)	61.9 µM (inactive)	40.5 µM (inactive)	39.4 µM (inactive)	78.2 µM (inactive)	51.1 µM (inactive)	42.4 µM (inactive)	55.5 µM (inactive)
CCOC(OCC)N1C(=O)C2(C(OCC)OCC)CC3C(OC(=O)N3N)c3cccc1c32 (stereo unspecified)	> 100 µM (inactive)	> 10 µM (inactive)	> 100 µM (inactive)	> 100 µM (inactive)	> 100 µM (inactive)	> 100 µM (inactive)	79.4 µM (inactive)	–	> 100 µM (inactive)	> 100 µM (inactive)	> 100 µM (inactive)	> 100 µM (inactive)	> 100 µM (inactive)	> 100 µM (inactive)	> 100 µM (inactive)	> 100 µM (inactive)	> 100 µM (inactive)	> 100 µM (inactive)	> 100 µM (inactive)
C#C[C@]1(O)CC[C@H]2[C@@H]3CCC4=C/C(=N/NC(=O)c5cccc6c(=O)c7ccccc7[nH]c56)CCC4[C@H]3CC[C@@]21C (stereo partly specified)	50.4 µM (inactive)	73.5 µM (inactive)	–	–	18 µM (inactive)	57.5 µM (inactive)	24.1 µM (inactive)	15.8 µM (inactive)	21.3 µM (inactive)	30.8 µM (inactive)	–	29.8 µM (inactive)	32.3 µM (inactive)	65.6 µM (inactive)	82.2 µM (inactive)	19.2 µM (inactive)	53 µM (inactive)	> 100 µM (inactive)	> 100 µM (inactive)
N#CCCN(CCCN(CCCN(C(=O)Nc1ccccc1)c1ccccc1)C(=O)Nc1ccccc1)C(=O)Nc1ccccc1	> 8.75 µM (inactive)	> 8.75 µM (inactive)	> 8.75 µM (inactive)	> 8.75 µM (inactive)	> 8.75 µM (inactive)	> 8.75 µM (inactive)	> 8.75 µM (inactive)	–	> 8.75 µM (inactive)	> 8.75 µM (inactive)	> 8.75 µM (inactive)	> 100 µM (inactive)	> 8.75 µM (inactive)	> 8.75 µM (inactive)	> 8.75 µM (inactive)	> 8.75 µM (inactive)	> 8.75 µM (inactive)	> 8.75 µM (inactive)	> 8.75 µM (inactive)
Nc1nc2c(=O)c3ccccc3sc2s1	> 100 µM (inactive)	34.8 µM (inactive)	35.1 µM (inactive)	39.8 µM (inactive)	–	41.5 µM (inactive)	47.4 µM (inactive)	–	22.6 µM (inactive)	69 µM (inactive)	> 100 µM (inactive)	45.1 µM (inactive)	56.2 µM (inactive)	45.5 µM (inactive)	43.2 µM (inactive)	41.4 µM (inactive)	57.8 µM (inactive)	80.7 µM (inactive)	20.4 µM (inactive)
COc1ccc(/N=N/c2c(C)c(C#N)c(=S)n(C3OC(CO)C(O)C(O)C3O)c2C)cc1 (stereo unspecified)	30.6 µM (inactive)	29 µM (inactive)	35 µM (inactive)	> 100 µM (inactive)	–	82 µM (inactive)	21.8 µM (inactive)	–	–	28.6 µM (inactive)	30.8 µM (inactive)	51.5 µM (inactive)	34.4 µM (inactive)	36.4 µM (inactive)	54.1 µM (inactive)	32.7 µM (inactive)	31.6 µM (inactive)	> 100 µM (inactive)	56.2 µM (inactive)
Cc1ccc(S(=O)(=O)NC(=O)NC(C(=O)O)C(C)O)cc1 (stereo unspecified)	> 100 µM (inactive)	> 100 µM (inactive)	> 100 µM (inactive)	> 100 µM (inactive)	> 100 µM (inactive)	> 100 µM (inactive)	> 100 µM (inactive)	> 100 µM (inactive)	> 100 µM (inactive)	> 100 µM (inactive)	> 100 µM (inactive)	> 100 µM (inactive)	–	> 100 µM (inactive)	> 100 µM (inactive)	> 100 µM (inactive)	> 100 µM (inactive)	> 100 µM (inactive)	–
CCOC(=O)/C=C(\C(=O)OCC)n1ccc(N)nc1=O	> 100 µM (inactive)	67.9 µM (inactive)	> 100 µM (inactive)	–	45.7 µM (inactive)	> 100 µM (inactive)	97.1 µM (inactive)	18.2 µM (inactive)	> 100 µM (inactive)	> 100 µM (inactive)	1.34 µM (inactive)	72.3 µM (inactive)	> 100 µM (inactive)	> 100 µM (inactive)	> 100 µM (inactive)	38.6 µM (inactive)	> 100 µM (inactive)	33 µM (inactive)	37.7 µM (inactive)
COc1ccc(NC(=O)N(C)CC2(O)CCC(C(C)(C)C)CC2)cc1 (stereo unspecified)	55.1 µM (inactive)	66.2 µM (inactive)	59.6 µM (inactive)	24.8 µM (inactive)	24.8 µM (inactive)	37 µM (inactive)	52.6 µM (inactive)	32.7 µM (inactive)	60.8 µM (inactive)	–	> 100 µM (inactive)	> 100 µM (inactive)	23 µM (inactive)	> 100 µM (inactive)	> 100 µM (inactive)	63.4 µM (inactive)	83.4 µM (inactive)	> 100 µM (inactive)	< 0.01 µM (active)
Cn1cc[n+](-c2cc(=O)n(C)c(=O)[n-]2)c1	> 100 µM (inactive)	81.8 µM (inactive)	> 100 µM (inactive)	> 100 µM (inactive)	> 100 µM (inactive)	31.8 µM (inactive)	77.8 µM (inactive)	–	–	92.3 µM (inactive)	> 100 µM (inactive)	> 100 µM (inactive)	80 µM (inactive)	> 100 µM (inactive)	> 100 µM (inactive)	> 100 µM (inactive)	> 100 µM (inactive)	> 100 µM (inactive)	–
Cc1nn(-c2ccccc2)c(C)c1/C=N/N=C1\S/C(=C\c2ccc(Cl)cc2)C(=O)N1c1ccccc1	62.5 µM (inactive)	7.91 µM (inactive)	> 100 µM (inactive)	12.6 µM (inactive)	28.1 µM (inactive)	14.2 µM (inactive)	14.2 µM (inactive)	–	40.3 µM (inactive)	> 100 µM (inactive)	> 100 µM (inactive)	10.9 µM (inactive)	> 100 µM (inactive)	68.7 µM (inactive)	5.83 µM (inactive)	> 100 µM (inactive)	9.48 µM (inactive)	> 100 µM (inactive)	> 100 µM (inactive)
CCCn1c(=O)c(N2CCN(c3ccccc3)CC2)nc2sc3ccccc3c21	> 100 µM (inactive)	–	> 100 µM (inactive)	–	> 100 µM (inactive)	> 100 µM (inactive)	> 100 µM (inactive)	> 100 µM (inactive)	> 100 µM (inactive)	> 100 µM (inactive)	> 100 µM (inactive)	> 100 µM (inactive)	> 100 µM (inactive)	> 100 µM (inactive)	> 100 µM (inactive)	97.3 µM (inactive)	> 100 µM (inactive)	> 100 µM (inactive)	> 100 µM (inactive)
COc1c2cc([N+](=O)[O-])cc1CN(C(=O)C(F)(F)F)CCOCCN(C(=O)C(F)(F)F)C2	> 100 µM (inactive)	–	> 100 µM (inactive)	–	> 100 µM (inactive)	> 100 µM (inactive)	> 100 µM (inactive)	> 100 µM (inactive)	> 100 µM (inactive)	> 100 µM (inactive)	> 100 µM (inactive)	> 100 µM (inactive)	> 100 µM (inactive)	> 100 µM (inactive)	> 100 µM (inactive)	70.6 µM (inactive)	> 100 µM (inactive)	> 100 µM (inactive)	> 100 µM (inactive)
CCCC(=O)C1=C(O)C(Cc2c(O)c(C)c(O)c(C(=O)CCC)c2O)=C(O)C(C)(C)C1=O	> 50 µM (inactive)	15.4 µM (inactive)	14.3 µM (inactive)	17 µM (inactive)	–	30.6 µM (inactive)	11 µM (inactive)	–	> 50 µM (inactive)	49.2 µM (inactive)	16.2 µM (inactive)	22.9 µM (inactive)	> 50 µM (inactive)	> 50 µM (inactive)	37 µM (inactive)	> 50 µM (inactive)	12.6 µM (inactive)	11.9 µM (inactive)	> 50 µM (inactive)
CC(=O)c1cc(CC2Cc3cc4c(cc3C2=O)CCC4)cc2c1CCC2 (stereo unspecified)	–	12.5 µM (inactive)	36 µM (inactive)	–	33 µM (inactive)	38.5 µM (inactive)	18.5 µM (inactive)	36.9 µM (inactive)	46.8 µM (inactive)	15.1 µM (inactive)	> 100 µM (inactive)	33.7 µM (inactive)	90.2 µM (inactive)	92.7 µM (inactive)	> 100 µM (inactive)	15.4 µM (inactive)	26.1 µM (inactive)	> 100 µM (inactive)	90.2 µM (inactive)
